From patent US20080175888A1, “Combination Therapy Comprising Actinidia and Steroids and Uses Thereof” (priority 2005, published 2008)

System: production of IL-13 and IFN-γ by OVA-stimulated mouse splenocytes
Assay: Cytokine production in OVA-stimulated splenocyte cultures, ELISA (Example 3)
Assay type: cell-based
Details: 3 days exposure in vitro, FIG. 5A/5B
Procedure: The purpose of this study was to assess the ability of A. arguta extracts that originate from plant parts other than the fruit, or from alternative preparations of the fruit (i.e., other than the extracts described in U.S. Patent Publication No. 2004/0037909, supra), to modulate cytokine production (IL-13 and IFNγ) in splenocyte cultures derived from ovalbumin-sensitized mice, using ELISA analysis. The following samples (prepared as described above) were tested: water extracts of the stem, root, and bark of A. arguta, prepared as described in Example 1; “boiled” fresh fruit preparations; the fruit juice concentrate prepared as described in Example 1; FD001 (large scale equivalent of PG102T) prepared as described in Example 1; FD001 powder prepared as described in Example 1 (used for clinical trials described below); a room temperature water extract of the dried A. arguta fruit; the EtOAc extract prepared as described in Example 1; and aqueous remainder, also described in Example 1. In addition, the activity of three known immunosuppressive compounds, cyclosporin, dexamethasone, and quercetin were evaluated as controls.
Preparation of the splenocytes was performed in a manner identical to that described above for Example 2. […]
The cytokine levels in the culture supernatants from all treatment and control wells were determined by ELISA assay. […]

Structure (SMILES): O=c1c(O)c(-c2ccc(O)c(O)c2)oc2cc(O)cc(O)c12 [quercetin]
- concentration of potent activity (suppression of IL-13 and IFN-γ): 1 to 25 µM
